US8785453B2, “Arylpiperazine-containing purine derivatives and uses thereof” (Green Cross Corporation, priority 2009, dated 2014)
pIC50: −log10 of the molar value.

Legend:
mice = assay: Anti-depressants activity in forced swimming test; format: in vivo; conditions: 60 min before testing
Experimental: Each mouse was placed in a 25 cm glass cylinder (10 cm diameter) containing 15 cm of water maintained at 22±1, and was forced to swim for 10 min. 24 hours later, the mouse was replaced into the cylinder and the total duration of immobility was recorded during the last 5 min of the 6-min testing period. Mice are judged immobile when they float in an upright position and make only small movements to keep their head above water. Test drugs were suspended in 3% Tween 80 solution, and administered orally (po) 60 min before the testing.

[1] = target: T1, human recombinant 5-HT2C receptor (Homo sapiens, UniProt P28335); assay: Binding affinity for serotonin 5-HT2C receptor ([3H]Mesulergine); conditions: CHO-K1 membranes, 1.3 nM [3H]Mesulergine; read-out: binding affinity (IC50) 5-HT2C
T1 construct: purchased PerkinElmer
T1 sequence (P28335 33-458): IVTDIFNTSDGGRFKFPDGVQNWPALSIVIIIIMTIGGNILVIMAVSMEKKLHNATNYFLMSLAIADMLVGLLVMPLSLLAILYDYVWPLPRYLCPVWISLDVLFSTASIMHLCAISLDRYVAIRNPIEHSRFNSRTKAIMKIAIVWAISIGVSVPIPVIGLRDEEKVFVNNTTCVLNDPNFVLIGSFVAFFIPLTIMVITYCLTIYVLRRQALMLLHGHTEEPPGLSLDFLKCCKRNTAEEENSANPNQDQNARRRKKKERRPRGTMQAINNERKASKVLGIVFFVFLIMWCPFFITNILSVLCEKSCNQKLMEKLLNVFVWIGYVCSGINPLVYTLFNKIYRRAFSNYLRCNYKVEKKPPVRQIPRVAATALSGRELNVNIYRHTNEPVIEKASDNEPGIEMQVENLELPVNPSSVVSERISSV
Experimental: (§1) Receptor binding affinities of the compounds for serotonin receptors were measured by the method described in the literature (see [Park W K et al., Pharmacol Biochem Behav., 82(2), 361-372 (2005)].
(§2) The binding affinity (IC50) of a compound for the receptor was calculated by computerized nonlinear regression analysis (GraphPad Prism Program, San Diego, USA) using 7-8 varied concentrations of the compound run in duplicate tubes.
For serotonin 5-HT2C binding, frozen membranes from stable CHO-K1 cell line expressing the human recombinant 5-HT2C receptor (PerkinElmer, 4 μg/well), [^3H]Mesulergine (Amersham, 1.3 nM) and test compounds were added into 50 mM Tris-HCl (pH 7.4) buffer containing 0.1% ascorbic acid and 4 mM CaCl2. Nonspecific binding was determined using 100 μM mianserin. The incubations were performed for 60 min at 27, and these were terminated by rapid filtration through filtermate A glass fiber filter presoaked in 0.5% PEI.

[2] = target: T2, human recombinant serotonin 5-HT2A receptor (Homo sapiens, UniProt P28223); assay: Binding affinity for serotonin 5-HT2A receptor ([3H]Ketanserin); conditions: CHO-K1 cells, 1 nM [3H]Ketanserin; read-out: binding affinity (IC50) 5-HT2A
T2 construct: purchased PerkinElmer Life and Analytical Sciences, USA; host or cells: CHO-K1 cells
Experimental: as §1
For serotonin 5-HT2A binding, an aliquot of human recombinant serotonin 5-HT2A receptor (PerkinElmer Life and Analytical Sciences, USA) expressed in CHO-K1 cells (5 μg/well) and 1 nM [^3H]Ketanserin (PerkinElmer) were used in the presence of mianserin (20 μM) as a nonspecific. The reaction mixture was incubated for 60 min […] 50 mM Tris-HCl (pH 7.4) buffer containing 4 mM CaCl2 and 0.1% ascorbic acid, and harvested through filtermate A glass fiber filter (Wallac, Finland) presoaked in 0.5% polyethyleneimine (PEI) by microbeta filtermate-96 harvester (PerkinElmer) to terminate the reaction, and then washed with ice cold 50 mM Tris-HCl buffer solution (pH 7.4). The filter was then covered with MeltiLex, sealed in a sample bag, dried in an oven. The radioactivity retained in the filter was finally counted using MicroBeta Plus (Wallac).
as §2

[3] = target: T3, human serotonin transporter (Homo sapiens, UniProt P31645); assay: Binding affinity for serotonin transporter ([3H]Imipramine); conditions: HEK-293 membrane, 2 nM [3H]Imipramine; read-out: binding affinity Serotonin Transporter
T3 construct: purchased PerkinElmer; host or cells: HEK-293 cells
Experimental: For serotonin transporter binding assays, a reaction mixture with a final volume of 0.25 ml was prepared by mixing a test compound, human serotonin transporter membrane expressed in HEK-293 cells (PerkinElmer, 5 μg/well), [^3H] Imipramine (PerkinElmer, 2 nM) and 50 mM Tris-HCl (pH 7.4) buffer containing 120 mM NaCl and 5 mM KCl. The reaction mixture was incubated for 30 min at 27, and harvested through filtermate A glass fiber filter presoaked in 0.5% PEI with ice cold 50 mM Tris-HCl buffer (pH 7.4) containing 0.9% NaCl.

T3 sequence (P31645 whole entry): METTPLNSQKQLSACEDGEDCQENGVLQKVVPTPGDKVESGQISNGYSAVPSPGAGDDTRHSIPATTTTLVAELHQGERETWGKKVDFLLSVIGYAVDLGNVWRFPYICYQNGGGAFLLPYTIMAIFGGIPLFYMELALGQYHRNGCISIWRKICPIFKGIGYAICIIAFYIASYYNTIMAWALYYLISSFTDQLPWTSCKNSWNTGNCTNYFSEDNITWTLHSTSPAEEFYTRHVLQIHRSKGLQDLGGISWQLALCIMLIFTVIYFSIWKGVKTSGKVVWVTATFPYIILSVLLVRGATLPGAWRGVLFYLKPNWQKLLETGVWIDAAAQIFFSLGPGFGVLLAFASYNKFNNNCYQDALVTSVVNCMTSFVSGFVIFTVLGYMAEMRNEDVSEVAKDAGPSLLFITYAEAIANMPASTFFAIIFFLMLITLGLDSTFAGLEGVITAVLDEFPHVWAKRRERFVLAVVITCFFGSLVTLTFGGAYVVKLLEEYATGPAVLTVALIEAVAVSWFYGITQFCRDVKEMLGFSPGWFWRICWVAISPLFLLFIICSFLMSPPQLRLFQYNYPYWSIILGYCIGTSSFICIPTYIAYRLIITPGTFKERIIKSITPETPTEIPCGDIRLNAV
T2 sequence (P28223 whole entry): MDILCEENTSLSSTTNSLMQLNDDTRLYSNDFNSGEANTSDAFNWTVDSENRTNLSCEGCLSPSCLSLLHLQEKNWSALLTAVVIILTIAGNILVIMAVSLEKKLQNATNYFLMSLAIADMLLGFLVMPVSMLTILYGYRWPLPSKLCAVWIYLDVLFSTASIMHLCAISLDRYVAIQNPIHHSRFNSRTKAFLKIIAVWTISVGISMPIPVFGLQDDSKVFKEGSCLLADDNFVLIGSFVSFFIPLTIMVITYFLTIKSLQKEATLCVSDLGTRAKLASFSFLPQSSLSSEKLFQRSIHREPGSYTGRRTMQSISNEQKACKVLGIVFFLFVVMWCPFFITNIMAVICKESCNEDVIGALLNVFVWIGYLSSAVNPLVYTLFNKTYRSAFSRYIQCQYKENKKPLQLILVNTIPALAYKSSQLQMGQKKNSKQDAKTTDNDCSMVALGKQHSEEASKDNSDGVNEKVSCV

| SMILES | Immobility in forced swimming test (mice; 25 mg/kg po) [%] | pIC50 [1] | pIC50 [2] | pIC50 [3] | Immobility in forced swimming test (mice; 50 mg/kg po) [%] |
| --- | --- | --- | --- | --- | --- |
| Cc1cccc(N2CCN(CCCNc3ncnc4c3nc(C)n4-c3ccc4c(c3)OCCO4)CC2)c1C [Example 43, 9-(2,3-dihydrobenzo[b][1,4]dioxin-6-yl)-N-(3-(4-(2,3-dimethylphenyl)piperazin-1-yl)propyl)-8-methyl-9H-purine-6-amine] | 81.26 ± 11.85 | 6.93 | 7.85 | 7.80 |  |
| Cc1cccc(N2CCN(CC(O)CNc3ncnc4c3nc(C)n4-c3ccc4c(c3)OCCO4)CC2)c1C (centres unmarked) [Example 44, 1-(9-(2,3-dihydrobenzo[b][1,4]dioxin-6-yl)-8-methyl-9H-purin-6-ylamino)-3-(4-(2,3-dimethylphenyl)piperazin-1-yl)propan-2-ol] | 80.41 ± 7.04 | 6.29 | 7.27 | 7.19 |  |
| CCc1nc2c(NCCCN3CCN(c4cccc(C)c4C)CC3)ncnc2n1-c1ccc2c(c1)OCCO2 [Example 45, 9-(2,3-dihydrobenzo[b][1,4]dioxin-6-yl)-N-(3-(4-(2,3-dimethylphenyl)piperazin-1-yl)propyl)-8-ethyl-9H-purine-6-amine] | 97.64 ± 7.25 | 6.82 | 7.85 | 7.31 |  |
| Cc1cccc(N2CCN(CCCNc3ncnc4c3nc(C)n4-c3ccc(F)cc3)CC2)c1C [Example 49, N-(3-(4-(2,3-dimethylphenyl)piperazin-1-yl)propyl)-9-(4-fluorophenyl)-8-methyl-9H-purine-6-amine] | 81.07 ± 7.11 | 6.44 | 7.33 | 7.21 |  |
| CCc1nc2c(NCCCN3CCN(c4cccc(C)c4C)CC3)ncnc2n1-c1ccc(F)cc1 [Example 51, N-(3-(4-(2,3-dimethylphenyl)piperazin-1-yl)propyl)-8-ethyl-9-(4-fluorophenyl)-9H-purine-6-amine] | 99.44 ± 10.28 | 6.37 | 7.18 | 7.72 |  |
| Cc1cccc(N2CCN(CCNc3ncnc4c3nc(C)n4-c3ccc(F)cc3)CC2)c1C [Example 55, N-(2-(4-(2,3-dimethylphenyl)piperazin-1-yl)ethyl)-9-(4-fluorophenyl)-8-methyl-9H-purine-6-amine] | 70.53 ± 11.73 | 6.89 | 7.51 | 6.29 | 78.41 ± 8.11 |
| CCc1nc2c(NCCN3CCN(c4cccc(C)c4C)CC3)ncnc2n1-c1ccc(F)cc1 [Example 56, N-(2-(4-(2,3-dimethylphenyl)piperazin-1-yl)ethyl)-8-ethyl-9-(4-fluorophenyl)-9H-purine-6-amine] | 71.41 ± 10.84 | 7.12 | 8.12 | 6.84 | 77.46 ± 12.27 |
| Cc1cccc(N2CCN(CCCNc3ncnc4c3nc(C)n4-c3ccc(Cl)cc3)CC2)c1C [Example 70, 9-(4-chlorophenyl)-N-(3-(4-(2,3-dimethylphenyl)piperazin-1-yl)propyl)-8-methyl-9H-purine-6-amine] | 80.67 ± 12.19 | 6.50 | 7.27 | 7.36 | 53.34 ± 10.82 |
| Cc1cccc(N2CCN(CCCNc3ncnc4c3nc(C)n4-c3ccc(C(F)(F)F)cc3)CC2)c1C [Example 76, N-(3-(4-(2,3-dimethylphenyl)piperazin-1-yl)propyl)-8-methyl-9-(4-(trifluoromethyl)phenyl)-9H-purine-6-amine] | 79.98 ± 7.42 | 6.34 | 7.37 | 6.89 | 90.13 ± 4.29 |
| Cc1cccc(N2CCN(CCCNc3ncnc4c3nc(-c3ccccc3)n4-c3ccc4c(c3)OCO4)CC2)c1C [Example 83, 9-(benzo[d][1,3]dioxol-5-yl)-N-(3-(4-(2,3-dimethylphenyl)piperazin-1-yl)propyl)-8-phenyl-9H-purine-6-amine] | 70.43 ± 6.15 | 6.70 | 7.52 | 7.38 |  |
